Measured values reported in EP0482939A1, “Isoquinolinone derivative” (ONO PHARMACEUTICAL CO., LTD., priority 1990, dated 1992).

Assays:
5-HT3 receptor = target: T1, 5-HT3 receptor (Rattus norvegicus, UniProt P35563); assay: Suppression of 5-HT-induced reflex bradycardia in urethane-anesthetised rats (antagonistic activity against 5-HT3 receptor in vivo); parameters: species or system Male Wister rat; details: intravenous administration, suppression of reflex bradycardia generated by i.v. 5-HT, read-out: IC50 i.v.
T1 construct: from tissue
T1 sequence (P35563 24-483): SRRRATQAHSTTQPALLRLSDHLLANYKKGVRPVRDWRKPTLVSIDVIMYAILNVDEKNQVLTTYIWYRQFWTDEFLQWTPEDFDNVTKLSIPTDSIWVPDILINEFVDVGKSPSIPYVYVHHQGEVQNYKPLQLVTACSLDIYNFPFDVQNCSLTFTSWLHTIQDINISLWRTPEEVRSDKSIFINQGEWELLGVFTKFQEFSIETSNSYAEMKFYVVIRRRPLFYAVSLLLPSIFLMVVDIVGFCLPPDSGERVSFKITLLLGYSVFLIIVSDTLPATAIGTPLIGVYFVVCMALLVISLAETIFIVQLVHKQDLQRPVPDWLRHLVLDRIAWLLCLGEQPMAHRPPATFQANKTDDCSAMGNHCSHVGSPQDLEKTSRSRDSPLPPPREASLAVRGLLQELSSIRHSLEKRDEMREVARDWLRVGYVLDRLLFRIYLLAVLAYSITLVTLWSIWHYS
Method: Male Wister rat was urethane-anesthetised and fixed. Cannulas were inserted in the carotoid artery and in the thigh vein as used for recording of blood pressure and heart beat, and for the administration of the test compounds, respectively.
Several doses of a compound of the present invention were administered from the vein. 5-HT was administered rapidly to the vein, 2 mins. after insertion of cannulas. The suppression effect of the compounds were confirmed by the measurement of the reflex bradycardia generated (Nature 316, 126 (1985)).

[1] = Acute toxicity by intravenous administration; details: mouse, in vivo; intravenous administration in mice
Method: Tests confirmed that the toxicity of the compounds of the present invention is very low. Therefore, the compounds of the present invention may be considered to be sufficiently safe and suitable for pharmaceutical use.
For example, the value of acute toxicity (LD50) of the compound prepared as in Example 1 was 50 mg/kg animal body weight by intravenous administration in mice.

SMILES: CC(=O)Nc1cc2ccn(Cc3nc[nH]c3C)c(=O)c2cc1Cl [Example 1(a)]
- ED50 (5-HT3 receptor): 0.99 mg/kg

SMILES: CNc1cc2ccn(Cc3nc[nH]c3C)c(=O)c2cc1Cl.Cl.Cl [1(d), 6-methylamino-7-chloro-2-(5-methyl-imidazol-4-ylmethyl)-1,2-dihydro-isoquinolin-1-one dihydrochloride]
- ED50 (5-HT3 receptor): 0.49 mg/kg

SMILES: CNc1cc(Cl)cc2c(=O)n(Cc3nc[nH]c3C)ccc12.Cl.Cl [1(e), 5-methylamino-7-chloro-2-(5-methyl-imidazol-4-ylmethyl)-1,2-dihydro-isoquinolin-1-one dihydrochloride]
- ED50 (5-HT3 receptor): 1.44 mg/kg

SMILES: Cc1[nH]cnc1Cn1ccc2cc(N)c(Cl)cc2c1=O.Cl.Cl [Example 1, 6-amino-7-chloro-2-(5-methylimidazol-4-ylmethyl)-1,2-dihydroisoquinolin-1-one dihydrochloride]
- LD50 [1]: 50 mg/kg
- ED50 (5-HT3 receptor): 0.39 mg/kg
